Columns and labels:
[1] = biological target: Fibroblast growth factor receptor 2 (Homo sapiens) (UniProt P21802)
[2] = biological target: SNF-related serine/threonine-protein kinase (Homo sapiens) (UniProt Q9NRH2)
[3] = biological target: Serine/threonine-protein kinase OSR1 (Homo sapiens) (UniProt O95747)
[4] = biological target: Phosphatidylinositol 4,5-bisphosphate 3-kinase catalytic subunit beta isoform (Homo sapiens) (UniProt P42338)
[5] = biological target: STE20/SPS1-related proline-alanine-rich protein kinase (Homo sapiens) (UniProt Q9UEW8)
[6] = biological target: Proto-oncogene tyrosine-protein kinase ROS (Homo sapiens) (UniProt P08922)
[7] = biological target: Serine/threonine-protein kinase 36 (Homo sapiens) (UniProt Q9NRP7)
[8] = biological target: Serine/threonine-protein kinase Nek11 (Homo sapiens) (UniProt Q8NG66)
[9] = biological target: Macrophage colony-stimulating factor 1 receptor (Homo sapiens) (UniProt P07333)
[10] = biological target: Dual specificity mitogen-activated protein kinase kinase 7 (Homo sapiens) (UniProt O14733)
[11] = biological target: Phosphatidylinositol 4-kinase beta (Homo sapiens) (UniProt Q9UBF8)
[12] = biological target: Fibroblast growth factor receptor 1 (Homo sapiens) (UniProt P11362)
[13] = biological target: Fibroblast growth factor receptor 4 (Homo sapiens) (UniProt P22455)
[14] = biological target: Calcium/calmodulin-dependent protein kinase kinase 1 (Homo sapiens) (UniProt Q8N5S9)
[15] = biological target: Tyrosine-protein kinase Lyn (Homo sapiens) (UniProt P07948)
[16] = biological target: Tyrosine-protein kinase BTK (Homo sapiens) (UniProt Q06187)
[17] = biological target: Serine/threonine-protein kinase TNNI3K (Homo sapiens) (UniProt Q59H18)
[18] = biological target: Serine/threonine-protein kinase ULK2 (Homo sapiens) (UniProt Q8IYT8)
[19] = biological target: Myosin-IIIa (Homo sapiens) (UniProt Q8NEV4)
[20] = biological target: Interleukin-1 receptor-associated kinase 1 (Homo sapiens) (UniProt P51617)
[21] = test system: eIF-2-alpha kinase GCN2 (Homo sapiens), Q9P2K8 [S808G]
[22] = biological target: Serine/threonine-protein kinase MRCK gamma (Homo sapiens) (UniProt Q6DT37)
[23] = biological target: Serine/threonine-protein kinase VRK2 (Homo sapiens) (UniProt Q86Y07)
[24] = biological target: Serine/threonine-protein kinase SBK1 (Homo sapiens) (UniProt Q52WX2)
[25] = biological target: Proto-oncogene tyrosine-protein kinase receptor Ret (Homo sapiens) (UniProt P07949)
[26] = biological target: 5-hydroxytryptamine receptor 5A (Homo sapiens) (UniProt P47898); settings: Compound concentration 10.0 uM
[27] = biological target: Calcium-dependent protein kinase 1 (Plasmodium falciparum) (UniProt P62344)
[28] = biological target: Serine/threonine-protein kinase ICK (Homo sapiens) (UniProt Q9UPZ9)
[29] = biological target: Receptor-interacting serine/threonine-protein kinase 1 (Homo sapiens) (UniProt Q13546)
[30] = biological target: Tyrosine-protein kinase JAK1 (Homo sapiens) (UniProt P23458)
[31] = biological target: Dual specificity protein kinase CLK1 (Homo sapiens) (UniProt P49759)
[32] = test system: Proto-oncogene tyrosine-protein kinase receptor Ret (Homo sapiens), P07949 [V804L]
[33] = biological target: Serine/threonine-protein kinase WNK1 (Homo sapiens) (UniProt Q9H4A3)
[34] = biological target: Cyclin-dependent kinase 13 (Homo sapiens) (UniProt Q14004)
[35] = biological target: MAP/microtubule affinity-regulating kinase 3 (Homo sapiens) (UniProt P27448)
[36] = biological target: Serine/threonine-protein kinase SIK1 (Homo sapiens) (UniProt P57059)
[37] = biological target: 5'-AMP-activated protein kinase catalytic subunit alpha-2 (Homo sapiens) (UniProt P54646)
[38] = biological target: RAC-beta serine/threonine-protein kinase (Homo sapiens) (UniProt P31751)
[39] = biological target: Serine/threonine-protein kinase 26 (Homo sapiens, UniProt Q9P289)
[40] = biological target: Protein kinase C epsilon type (Homo sapiens) (UniProt Q02156)
[41] = biological target: Beta-3 adrenergic receptor (Homo sapiens) (UniProt P13945); settings: Compound concentration 10.0 uM
[42] = biological target: Cyclin-dependent kinase 3 (Homo sapiens) (UniProt Q00526)
[43] = biological target: Serine/threonine-protein kinase Sgk3 (Homo sapiens) (UniProt Q96BR1)
[44] = biological target: Phosphorylase b kinase regulatory subunit alpha, liver isoform (Homo sapiens) (UniProt P46019)
[45] = biological target: Mitogen-activated protein kinase kinase kinase 7 (Homo sapiens) (UniProt O43318)
[46] = Compound concentration 1000.0 nM
[47] = Compound concentration 100.0 nM

Fibroblast growth factor receptor 1 (Homo sapiens), sequence (P11362 22-822 limits assumed): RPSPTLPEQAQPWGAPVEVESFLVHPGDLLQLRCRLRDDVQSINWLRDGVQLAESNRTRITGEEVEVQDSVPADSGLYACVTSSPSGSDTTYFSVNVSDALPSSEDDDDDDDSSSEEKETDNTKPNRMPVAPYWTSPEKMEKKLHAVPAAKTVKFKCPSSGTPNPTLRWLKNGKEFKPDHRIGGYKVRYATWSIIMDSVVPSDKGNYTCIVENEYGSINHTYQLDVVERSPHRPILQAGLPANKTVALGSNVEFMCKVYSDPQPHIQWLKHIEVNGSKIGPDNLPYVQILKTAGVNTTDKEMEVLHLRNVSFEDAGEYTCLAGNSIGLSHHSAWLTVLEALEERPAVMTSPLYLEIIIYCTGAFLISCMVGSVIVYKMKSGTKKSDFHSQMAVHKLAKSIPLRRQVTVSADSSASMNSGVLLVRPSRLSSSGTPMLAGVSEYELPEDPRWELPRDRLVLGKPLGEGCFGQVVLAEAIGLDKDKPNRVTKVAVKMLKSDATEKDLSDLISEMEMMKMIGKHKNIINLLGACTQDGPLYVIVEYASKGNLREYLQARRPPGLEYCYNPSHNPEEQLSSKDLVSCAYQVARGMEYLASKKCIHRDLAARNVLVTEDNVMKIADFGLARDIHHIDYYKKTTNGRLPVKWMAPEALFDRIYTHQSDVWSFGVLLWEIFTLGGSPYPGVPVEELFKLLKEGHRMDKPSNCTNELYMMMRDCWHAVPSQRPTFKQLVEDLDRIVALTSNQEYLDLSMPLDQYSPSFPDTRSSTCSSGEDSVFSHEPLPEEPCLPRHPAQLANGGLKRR
5-hydroxytryptamine receptor 5A (Homo sapiens), sequence (P47898 whole entry): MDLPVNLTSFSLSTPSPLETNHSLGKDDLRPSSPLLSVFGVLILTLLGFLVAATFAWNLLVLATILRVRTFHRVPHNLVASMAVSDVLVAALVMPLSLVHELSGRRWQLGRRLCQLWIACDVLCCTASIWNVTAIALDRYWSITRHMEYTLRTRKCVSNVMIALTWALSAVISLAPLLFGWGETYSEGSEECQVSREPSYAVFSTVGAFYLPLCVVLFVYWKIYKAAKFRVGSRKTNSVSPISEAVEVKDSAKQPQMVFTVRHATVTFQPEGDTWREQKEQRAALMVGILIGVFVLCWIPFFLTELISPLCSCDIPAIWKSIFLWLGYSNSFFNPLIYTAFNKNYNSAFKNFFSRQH
eIF-2-alpha kinase GCN2 (Homo sapiens), Q9P2K8 [S808G], sequence (Q9P2K8 whole entry S808G): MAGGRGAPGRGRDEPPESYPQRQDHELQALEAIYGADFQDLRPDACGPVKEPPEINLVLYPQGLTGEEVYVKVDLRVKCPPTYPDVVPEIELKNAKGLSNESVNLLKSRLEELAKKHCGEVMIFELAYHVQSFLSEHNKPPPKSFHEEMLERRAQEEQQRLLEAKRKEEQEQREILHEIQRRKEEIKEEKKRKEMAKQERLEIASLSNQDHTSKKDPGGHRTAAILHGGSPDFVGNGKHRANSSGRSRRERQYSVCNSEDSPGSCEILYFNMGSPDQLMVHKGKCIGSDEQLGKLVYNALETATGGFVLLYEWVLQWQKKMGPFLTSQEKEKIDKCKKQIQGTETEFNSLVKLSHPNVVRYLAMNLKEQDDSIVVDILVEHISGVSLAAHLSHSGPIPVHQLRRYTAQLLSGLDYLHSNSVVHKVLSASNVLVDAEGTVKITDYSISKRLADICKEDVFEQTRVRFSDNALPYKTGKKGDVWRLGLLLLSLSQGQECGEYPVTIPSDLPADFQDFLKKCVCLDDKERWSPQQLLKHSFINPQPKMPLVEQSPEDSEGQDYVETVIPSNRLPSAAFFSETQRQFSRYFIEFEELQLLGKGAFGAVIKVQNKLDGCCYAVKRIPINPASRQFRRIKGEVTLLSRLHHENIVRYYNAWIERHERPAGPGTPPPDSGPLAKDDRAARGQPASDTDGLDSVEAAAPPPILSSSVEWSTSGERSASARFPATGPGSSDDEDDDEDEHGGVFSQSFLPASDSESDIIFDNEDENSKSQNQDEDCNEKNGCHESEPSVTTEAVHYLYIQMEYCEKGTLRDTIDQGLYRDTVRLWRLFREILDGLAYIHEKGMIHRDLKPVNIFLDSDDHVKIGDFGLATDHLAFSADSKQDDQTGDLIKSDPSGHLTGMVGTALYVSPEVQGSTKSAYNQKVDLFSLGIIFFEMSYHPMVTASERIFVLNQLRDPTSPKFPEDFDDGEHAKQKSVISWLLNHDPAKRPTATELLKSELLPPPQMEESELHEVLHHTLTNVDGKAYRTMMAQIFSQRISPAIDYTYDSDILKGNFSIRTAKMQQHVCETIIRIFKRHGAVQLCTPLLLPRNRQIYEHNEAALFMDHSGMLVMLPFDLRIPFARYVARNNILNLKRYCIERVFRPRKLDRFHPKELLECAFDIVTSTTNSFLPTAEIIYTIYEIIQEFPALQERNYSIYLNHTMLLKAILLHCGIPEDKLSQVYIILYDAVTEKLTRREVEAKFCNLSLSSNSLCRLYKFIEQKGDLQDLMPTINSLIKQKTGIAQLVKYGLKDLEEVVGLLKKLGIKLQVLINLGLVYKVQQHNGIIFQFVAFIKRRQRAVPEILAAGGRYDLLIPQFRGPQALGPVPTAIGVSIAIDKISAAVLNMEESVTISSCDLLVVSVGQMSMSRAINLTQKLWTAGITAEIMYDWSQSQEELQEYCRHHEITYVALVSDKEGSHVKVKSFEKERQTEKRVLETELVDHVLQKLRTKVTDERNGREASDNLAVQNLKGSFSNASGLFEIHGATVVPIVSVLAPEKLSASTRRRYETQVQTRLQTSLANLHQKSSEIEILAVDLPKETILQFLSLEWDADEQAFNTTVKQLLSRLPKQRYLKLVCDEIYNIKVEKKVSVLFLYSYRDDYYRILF
Serine/threonine-protein kinase OSR1 (Homo sapiens), sequence (O95747 2-527 limits assumed): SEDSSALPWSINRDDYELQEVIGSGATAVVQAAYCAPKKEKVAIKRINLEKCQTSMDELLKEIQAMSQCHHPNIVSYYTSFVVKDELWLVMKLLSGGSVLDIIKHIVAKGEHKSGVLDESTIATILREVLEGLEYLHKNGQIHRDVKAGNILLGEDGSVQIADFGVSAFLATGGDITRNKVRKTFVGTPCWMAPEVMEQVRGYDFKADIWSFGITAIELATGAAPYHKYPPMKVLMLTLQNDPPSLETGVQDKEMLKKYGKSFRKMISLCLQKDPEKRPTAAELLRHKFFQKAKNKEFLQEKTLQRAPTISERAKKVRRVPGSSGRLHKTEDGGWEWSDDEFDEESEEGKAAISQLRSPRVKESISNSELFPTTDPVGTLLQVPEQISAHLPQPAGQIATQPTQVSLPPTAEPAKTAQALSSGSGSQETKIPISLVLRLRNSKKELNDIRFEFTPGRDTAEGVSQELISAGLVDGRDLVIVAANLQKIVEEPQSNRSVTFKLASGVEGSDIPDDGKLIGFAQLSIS
Calcium/calmodulin-dependent protein kinase kinase 1 (Homo sapiens), sequence (Q8N5S9 whole entry, looked up): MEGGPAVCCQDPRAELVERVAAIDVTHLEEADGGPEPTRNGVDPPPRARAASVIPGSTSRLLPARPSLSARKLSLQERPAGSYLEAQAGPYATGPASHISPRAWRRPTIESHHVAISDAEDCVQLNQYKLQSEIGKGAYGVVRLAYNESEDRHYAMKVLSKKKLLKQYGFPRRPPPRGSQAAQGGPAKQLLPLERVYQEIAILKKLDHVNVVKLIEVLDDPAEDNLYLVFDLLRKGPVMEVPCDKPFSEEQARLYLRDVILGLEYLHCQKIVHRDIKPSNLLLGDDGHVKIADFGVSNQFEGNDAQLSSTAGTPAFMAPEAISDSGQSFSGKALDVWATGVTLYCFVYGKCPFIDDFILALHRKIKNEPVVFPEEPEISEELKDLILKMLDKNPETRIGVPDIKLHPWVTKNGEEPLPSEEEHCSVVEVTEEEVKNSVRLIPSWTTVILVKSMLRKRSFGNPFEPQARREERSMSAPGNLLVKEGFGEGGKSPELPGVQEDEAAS
Serine/threonine-protein kinase ICK (Homo sapiens), sequence (Q9UPZ9 whole entry): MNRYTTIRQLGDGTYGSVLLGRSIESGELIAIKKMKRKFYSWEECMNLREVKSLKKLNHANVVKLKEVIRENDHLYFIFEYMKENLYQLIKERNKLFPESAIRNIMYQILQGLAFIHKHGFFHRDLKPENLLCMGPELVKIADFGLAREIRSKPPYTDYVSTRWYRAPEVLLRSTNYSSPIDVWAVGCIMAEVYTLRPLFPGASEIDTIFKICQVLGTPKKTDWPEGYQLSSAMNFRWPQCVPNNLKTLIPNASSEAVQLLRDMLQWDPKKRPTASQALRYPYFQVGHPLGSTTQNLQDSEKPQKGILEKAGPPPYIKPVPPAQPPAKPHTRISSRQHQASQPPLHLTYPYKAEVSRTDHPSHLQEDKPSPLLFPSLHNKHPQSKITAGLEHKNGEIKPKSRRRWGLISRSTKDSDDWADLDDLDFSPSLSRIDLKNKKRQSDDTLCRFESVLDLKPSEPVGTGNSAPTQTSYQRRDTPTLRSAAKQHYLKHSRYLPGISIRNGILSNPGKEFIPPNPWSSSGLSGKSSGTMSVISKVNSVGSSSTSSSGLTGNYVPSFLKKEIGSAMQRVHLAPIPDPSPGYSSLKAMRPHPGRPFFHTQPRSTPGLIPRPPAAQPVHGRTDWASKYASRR
Serine/threonine-protein kinase VRK2 (Homo sapiens), sequence (Q86Y07 whole entry): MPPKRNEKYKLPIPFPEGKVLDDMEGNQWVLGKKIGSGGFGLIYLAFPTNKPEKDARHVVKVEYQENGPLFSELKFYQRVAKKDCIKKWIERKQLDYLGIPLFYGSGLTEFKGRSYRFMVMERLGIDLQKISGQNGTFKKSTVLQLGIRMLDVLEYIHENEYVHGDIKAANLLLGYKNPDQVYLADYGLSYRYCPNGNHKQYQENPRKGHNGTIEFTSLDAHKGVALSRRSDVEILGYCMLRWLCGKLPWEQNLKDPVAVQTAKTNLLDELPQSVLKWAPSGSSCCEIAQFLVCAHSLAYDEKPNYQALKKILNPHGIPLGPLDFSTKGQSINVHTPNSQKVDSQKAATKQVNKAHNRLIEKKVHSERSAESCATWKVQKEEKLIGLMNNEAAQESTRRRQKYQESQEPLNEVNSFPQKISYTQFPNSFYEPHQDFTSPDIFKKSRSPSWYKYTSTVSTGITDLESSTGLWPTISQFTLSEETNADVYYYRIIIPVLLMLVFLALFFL

C[C@H](NC(=O)Nc1cc2[nH]ncc2c(CO)n1)c1ccccn1 [ERKi-NC]
active: residual activity [30, 46] 42.4%
inactive: residual activity [1, 46] 62% | residual activity [2, 46] 100% | residual activity [3, 46] 100% | residual activity [4, 46] 100% | residual activity [5, 46] 80.9% | residual activity [6, 46] 85% | residual activity [7, 46] 97.3% | residual activity [8, 46] 57.7% | residual activity [9, 46] 94.8% | residual activity [10, 46] 94.1% | residual activity [11, 46] 100% | residual activity [12, 46] 78% | residual activity [13, 46] 100% | residual activity [14, 46] 100% | residual activity [15, 46] 100% | residual activity [16, 46] 92% | residual activity [17, 46] 100% | residual activity [18, 46] 100% | residual activity [19, 46] 100% | residual activity [20, 46] 100% | residual activity [21, 46] 77.2% | residual activity [22, 46] 100% | residual activity [23, 46] 100% | residual activity [24, 46] 100% | residual activity [25, 46] 100% | inhibition [26] 9.46% | residual activity [27, 46] 77.4% | residual activity [28, 46] 71.4% | residual activity [29, 46] 100% | residual activity [31, 46] 94.4% | residual activity [32, 46] 100% | residual activity [33, 46] 100% | residual activity [34, 46] 79% | residual activity [35, 46] 89.6% | residual activity [36, 46] 100% | residual activity [37, 46] 100% | residual activity [38, 46] 100% | residual activity [39, 46] 100% | residual activity [40, 46] 100% | inhibition [41] 13.6% | residual activity [42, 46] 100% | residual activity [43, 46] 93.6% | residual activity [44, 46] 100% | residual activity [45, 46] 100%

C[C@@H](NC(=O)Nc1cc2[nH]ncc2c(CO)n1)c1ccccc1 [ERKi]
active: residual activity [34, 47] 45.7%
inactive: residual activity [1, 47] 100% | residual activity [2, 47] 100% | residual activity [3, 47] 69.8% | residual activity [4, 47] 81.5% | residual activity [5, 47] 100% | residual activity [6, 47] 100% | residual activity [7, 47] 88.4% | residual activity [8, 47] 83.4% | residual activity [9, 47] 87.3% | residual activity [10, 47] 89.4% | residual activity [11, 47] 82.1% | residual activity [12, 47] 94.1% | residual activity [13, 47] 100% | residual activity [14, 47] 87.5% | residual activity [15, 47] 84.5% | residual activity [16, 47] 100% | residual activity [17, 47] 94.6% | residual activity [18, 47] 79.7% | residual activity [19, 47] 100% | residual activity [20, 47] 54.8% | residual activity [21, 47] 100% | residual activity [22, 47] 98.2% | residual activity [23, 47] 76.3% | residual activity [24, 47] 53.3% | residual activity [25, 47] 92.6% | inhibition [26] 1.39% | residual activity [27, 47] 82.9% | residual activity [28, 47] 80.9% | residual activity [29, 47] 100% | residual activity [30, 47] 77% | residual activity [31, 47] 72.6% | residual activity [32, 47] 100% | residual activity [33, 47] 90.8% | residual activity [35, 47] 100% | residual activity [36, 47] 100% | residual activity [37, 47] 59.6% | residual activity [38, 47] 100% | residual activity [39, 47] 94.9% | residual activity [40, 47] 85% | inhibition [41] 24.1% | residual activity [42, 47] 86.1% | residual activity [43, 47] 83.2% | residual activity [44, 47] 78.8% | residual activity [45, 47] 82.6%

— ChEMBL document CHEMBL4507286 (2021)
